Among the data in US20240003908A1, “POLYOL BIOMARKERS FOR CONGENITAL DISORDERS OF GLYCOSYLATION” (Mayo Foundation for Medical Education and Research, priority 2020, published 2024) are ICARS score values, retold here.

The structures appear in SMILES notation.

The subject of this assay is child with PMM2-CDG. Briefly: Single patient (P1) study: clinical efficacy (ICARS, NPCRS, BMI, weight). The assay is classed as in vivo, human. Particulars: same patient, five months acetazolamide before epalrestat; from 66. Here is the method:
Prospectively collected clinical and laboratory data in 24 PMM2-CDG patients: The genetic, laboratory, metabolic, and clinical data of 24 PMM2-CDG patients were evaluated (TABLES 2A and 2B). Disease severity was assessed by Nijmegen Pediatric CDG Rating Scale (NPCRS), (most severe=82; mild (0-14), moderate (15-25), severe (>26)) (Achouitar et al., J Inherit Metab Dis 34:923-927, 2011; and Martinez-Monseny et al., Ann Neurol 85:740-751, 2019). Patient P1 and twin patients P4 and P5 also were discussed elsewhere (Qian et al., JIMD Rep 56:27-33, 2020; and Jaeken et al., Ped Res 14:179, 1980). P1, enrolled in a single IND clinical trial, was additionally evaluated by the International cooperative ataxia rating scale (ICARS) (Trouillas et al., J Neurol Sci 145:205-211, 1997), which assesses limb ataxia, dysarthria, posture and gait disturbances, and oculomotor disorders (0=normal; 100=most severe). Urinary polyols including sorbitol and mannitol were analyzed by GC/MS in 23 out of the 24 PMM2-CDG patients (patient P6 was deceased). In addition, functional in vitro data was collected from the fibroblasts of P1-P6, P8, P10, P17, P19, and P24.
Study design: An open label, single patient (P1) compassionate use study was designed to assess the safety and tolerability of oral epalrestat therapy in a child with PMM2-CDG.
Patient assessment: Prior to the first dose of epalrestat and at 1, 2, 3, 6, 8, 9, 12 months during treatment, concomitant medications and vital signs were recorded and the patient was evaluated using the NPCRS. In addition, blood was drawn for serum chemistry, hematology, and plasma levels of epalrestat. Urine was collected for polyol measurement at baseline and twice over the course of 12 months of therapy.
Drug administration: Epalrestat was administered orally, 3 times per day (TID) before meals in a divided dose (0.8 mg/kg/day; 5 mg TID) of epalrestat (Ono Pharmaceuticals, Osaka, Japan) starting on Day 1 of the study.
Safety and efficacy: Safety measures included vital signs, change in CBC, liver function (INR, bilirubin, transaminases, and albumin) in blood, change in liver elastography, and following the pharmacokinetic profile of epalrestat. The efficacy of epalrestat was studied by clinical follow up (physical exam, NPCRS, ICARS), standard laboratory tests, and transferrin glycoform analysis by mass spectrometry.

For `CC(=O)Nc1nnc(S(N)(=O)=O)s1` [acetazolamide], the ICARS score is reported as 56.
